Results on seven compounds are retold here after US20250041303A1, “COMBINATION THERAPY FOR CANCER TREATMENT” (INSTITUTE FOR CANCER RESEARCH D/B/A THE RESEARCH INSTITUTE …, priority 2021, published 2025).

Series [1] concerns A1847 and SUM159 parental and degrader-resistant cells. Nature of the series: CellTiter-Glo cell viability, parental vs degrader-resistant cells. On the technique in general: Cellular ATP, detected with luciferase, serves as a proxy for viable cell number.
The target in series [2] is T1, MDR1 (Homo sapiens, UniProt P08183). Nature of the series: Rhodamine 123 efflux assay in degrader-resistant cells. The format is cell-based. The settings on record: 2 μM. Also on record: endogenous in cells; host or cells: A1847 parental, dBET6-R, Thal-R; SUM159 parental, MZ1-R. Here is the method:
(§1) Efflux assay was performed according to manufacturer's protocol (Millipore Sigma #ECM910). Cells were resuspended in cold efflux buffer and incubated with Rhodamine 123 for 1 hour on ice. Cells were centrifuged and treated in warm efflux buffer with DMSO or drug for 30-60 minutes, washed with cold PBS, and effluxed dye was quantified with a plate reader at an excitation wavelength of 485 nm and an emission wavelength of 530 nm.

For a further series, the system named is DLD-1 cells. Nature of the series: Colony formation assay (14 days) in DLD-1 cells. The settings on record: for colony formation on co-treatment with dBET6: dBET6 0.1 μM plus the compound at 2 μM, 14-day period.
Series [3] concerns the target T1, MDR1. Nature of the series: Rhodamine 123 efflux assay in DLD-1 cells. Further details: endogenous in cells. The settings on record: 2 μM. It counts as cell-based. The protocol: as §1
Series [4] has as its target T2, CDK9 (Homo sapiens, UniProt P50750). Nature of the series: Western blot of CDK9 degradation, A1847 parental vs Thal-R cells. The format is cell-based. The conditions noted are these: A1847 Thal-R vs parental; 2 μM, 4 hours. In general terms: In western blotting, separated proteins are transferred to a membrane and probed.
Description: (§2) Samples were harvested in MIB lysis buffer (50 mM HEPES (pH 7.5), 0.5% Triton X-100, 150 mM NaCl, 1 mM EDTA, 1 mM EGTA, 10 mM sodium fluoride, 2.5 mM sodium orthovanadate, 1× protease inhibitor cocktail (Roche), and 1% each of phosphatase inhibitor cocktails 2 and 3 (Sigma)). Particulate was removed by centrifugation of lysates at 21,000 rpm for 15 minutes at 4° C. Lysates were subjected to SDS-PAGE chromatography and transferred to PVDF membranes before western blotting with primary antibodies. […] Secondary HRP-anti-rabbit and HRP-anti-mouse were obtained from ThermoFisher Scientific. SuperSignal West Pico and Femto Chemiluminescent Substrates (Thermo) were used to visualize blots.
Series [5] has as its target T2, CDK9. Nature of the series: Western blot of CDK9 degradation in DLD-1 cells. It counts as cell-based. Further details: endogenous in cells; host or cells: DLD-1. The settings on record: DLD-1; increasing doses of Thal SNS 032 plus the compound at 2 μM, 4 hours.
Description: as §2
Series [6] deals with A1847 dBET6-R or Thal-R cells. In words: Apoptosis by western blot in degrader-resistant A1847 cells. It counts as cell-based. The conditions noted are these: 2 μM, 4 hours.
Description: as §2
Series [7] relates to BET proteins (BRD2, BRD3 or BRD4). Nature of the series: Western blot of BET protein degradation, parental vs degrader-resistant cells. The format is cell-based. The conditions noted are these: for degradation of BET proteins by escalating doses: 0-10 μM, 24 hours.
Description: as §2
In a further series the target is T3, BRD4 (BET proteins) (Homo sapiens, UniProt O60885).
T3 construct: endogenous in cells; host or cells: DLD-1
Nature of the series: Western blot of BET protein/BRD4 degradation in DLD-1 cells. The format is cell-based. The settings on record: 4 hours; for dBET6-mediated degradation of BRD4 on combined treatment: increasing doses of dBET6 plus the compound at 2 μM.

For another series, the system named is A1847 or SUM159 cells. Nature of the series: Colony formation assay (14 days, crystal violet). The conditions noted are these: SUM159 cells expressing Flag-MDR1, MZ1 0.1 μM, with or without tariquidar 0.1 μM.
Series [8] has as its system HCT-15, DLD-1 and CAKI-1 cells (MDR1 overexpressing). Nature of the series: CellTiter-Glo cell viability of MDR1 overexpressing vs low MDR1 cancer cell lines. The conditions noted are these: HCT-15, DLD-1, CAKI-1 vs A1847, SUM159, MOLT4; escalating doses, 5 days.
The subject of another series is ABCB1 (MDR1). Nature of the series: ABCB1 expression and MDR1 protein by qRT-PCR and immunoblot after chronic MZ1 exposure. It counts as cell-based. Here is the method: GeneJET RNA purification kit (Thermo Scientific) was used to isolate RNA from cells according to manufacturer's instructions. qRT-PCR on diluted cDNA was performed with inventoried TaqMan® Gene Expression Assays on the Applied Biosystems 7500 Fast Real-Time PCR System. The TaqMan Gene Expression Assay probes (ThermoFisher Scientific) used to assess changes in gene expression include ABCB1 (Assay ID: Hsxxxx), and ACTB (control) (Assay ID: Hsxxxx).

The test system of series [9] is OVCAR3, HCT116, and MOLT4 cells. Nature of the series: CellTiter-Glo cell viability, parental vs MZ1 chronically exposed cells. The conditions noted are these: 5 days.
Another series has as its system MDR1 (ABCB1). In words: Single-run proteomics (LC-MS/MS, label-free quantitation) of degrader-resistant cells. The format is cell-based, human. The protocol: To determine changes in cells chronically exposed to BET or CDK9 PROTACs, we performed single-run proteome analysis as previously described (Lai et al., Front. Oncol., 2020, 10, 2336). Briefly, WT or PROTAC-R cells were lysed in 50 mM HEPES pH 8.0+4% SDS, and 100 μg of proteins were digested using LysC and trypsin. Digested peptides were isolated using C-18 and PGC columns, then dried and cleaned with ethyl acetate. Three […] peptides were analyzed using LC-MS/MS. MaxQuant normalized LFQ values were imported into Perseus software (1.6.2.3) and filtered in the following manner: kinases identified by site only were removed, reverse, or potential contaminant were removed then filtered for kinases identified by >1 unique peptide. Protein LFQ values were log 2 transformed, filtered for a minimum valid number of 3, normalized using Z-scores, annotated, and subjected to a Student's t-test with comparing […]. […]
Proteolytic peptides were resuspended in 0.1% formic acid and separated with a Thermo Scientific RSLC nano Ultimate 3000 LC on a Thermo Scientific Easy-Spray C18 PepMap 75 μm×50 cm C-18 2 μm column. […] Eluted peptides were analyzed by Thermo Scientific Q Exactive or Q Exactive plus mass spectrometers utilizing a top 15 methodology in which the 15 most intense peptide precursor ions were subjected to fragmentation. […]
Raw data analysis of LFQ experiments was performed using MaxQuant software 1.6.1.0 and searched using Andromeda 1.5.6.0 against the Swiss-Prot human protein database (downloaded on Apr. 24, 2019, 20402 entries). […] LFQ quantitation was performed using MaxQuant with the following parameters; LFQ minimum ratio count: Global parameters for protein quantitation were as follows: label minimum ratio count: 1, peptides used for quantitation: unique, only use modified proteins selected and with normalized average ratio estimation selected. Match between runs was employed for LFQ quantitation and the significance threshold of the ion score was calculated based on a false discovery rate of <1%.

[10] abbreviates: A1847 parental vs chronically exposed cells, escalating doses, 5 days.

T1 sequence (P08183 whole entry): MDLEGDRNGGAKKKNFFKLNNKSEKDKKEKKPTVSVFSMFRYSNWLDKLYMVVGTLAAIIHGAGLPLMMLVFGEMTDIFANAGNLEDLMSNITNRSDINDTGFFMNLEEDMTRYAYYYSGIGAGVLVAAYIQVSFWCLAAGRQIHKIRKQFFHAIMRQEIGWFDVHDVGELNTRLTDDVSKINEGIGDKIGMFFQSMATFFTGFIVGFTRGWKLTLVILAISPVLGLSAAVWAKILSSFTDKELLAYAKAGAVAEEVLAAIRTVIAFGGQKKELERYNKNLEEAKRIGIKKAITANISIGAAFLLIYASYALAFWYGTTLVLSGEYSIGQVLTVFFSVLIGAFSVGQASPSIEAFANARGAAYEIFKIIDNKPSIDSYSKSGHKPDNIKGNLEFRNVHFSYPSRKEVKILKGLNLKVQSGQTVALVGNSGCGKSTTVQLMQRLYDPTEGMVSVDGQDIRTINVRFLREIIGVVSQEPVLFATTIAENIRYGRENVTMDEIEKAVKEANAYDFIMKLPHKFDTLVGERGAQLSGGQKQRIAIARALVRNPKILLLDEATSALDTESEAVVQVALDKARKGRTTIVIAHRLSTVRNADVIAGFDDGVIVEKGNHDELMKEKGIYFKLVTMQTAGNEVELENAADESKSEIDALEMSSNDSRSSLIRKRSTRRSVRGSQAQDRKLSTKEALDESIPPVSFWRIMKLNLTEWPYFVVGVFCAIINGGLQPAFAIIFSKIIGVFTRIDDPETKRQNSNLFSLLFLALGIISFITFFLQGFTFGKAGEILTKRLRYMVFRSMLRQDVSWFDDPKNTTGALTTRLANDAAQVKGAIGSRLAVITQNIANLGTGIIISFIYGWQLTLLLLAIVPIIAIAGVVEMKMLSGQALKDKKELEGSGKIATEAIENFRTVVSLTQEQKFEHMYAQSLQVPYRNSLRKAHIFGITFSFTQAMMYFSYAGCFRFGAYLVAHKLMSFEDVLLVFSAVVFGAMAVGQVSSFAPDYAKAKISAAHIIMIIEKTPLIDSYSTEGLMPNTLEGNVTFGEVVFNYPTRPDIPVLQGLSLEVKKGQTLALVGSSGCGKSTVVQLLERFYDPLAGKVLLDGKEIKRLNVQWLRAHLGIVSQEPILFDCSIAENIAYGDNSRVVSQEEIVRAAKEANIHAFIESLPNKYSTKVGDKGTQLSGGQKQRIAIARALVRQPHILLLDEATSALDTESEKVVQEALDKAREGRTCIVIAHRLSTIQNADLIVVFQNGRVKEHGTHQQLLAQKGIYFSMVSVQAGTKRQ
T2 sequence (P50750 whole entry): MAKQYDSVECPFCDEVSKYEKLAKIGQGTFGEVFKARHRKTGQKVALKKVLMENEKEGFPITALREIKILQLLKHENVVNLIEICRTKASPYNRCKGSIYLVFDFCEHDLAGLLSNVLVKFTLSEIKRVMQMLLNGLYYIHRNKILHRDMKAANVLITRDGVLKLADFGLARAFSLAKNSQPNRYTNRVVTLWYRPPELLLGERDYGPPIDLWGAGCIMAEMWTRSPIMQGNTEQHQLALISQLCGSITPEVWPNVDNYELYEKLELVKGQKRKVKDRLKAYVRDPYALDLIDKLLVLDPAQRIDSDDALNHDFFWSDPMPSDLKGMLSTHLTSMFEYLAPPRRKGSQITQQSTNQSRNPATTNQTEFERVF
T2 sequence (O60563 whole entry partner): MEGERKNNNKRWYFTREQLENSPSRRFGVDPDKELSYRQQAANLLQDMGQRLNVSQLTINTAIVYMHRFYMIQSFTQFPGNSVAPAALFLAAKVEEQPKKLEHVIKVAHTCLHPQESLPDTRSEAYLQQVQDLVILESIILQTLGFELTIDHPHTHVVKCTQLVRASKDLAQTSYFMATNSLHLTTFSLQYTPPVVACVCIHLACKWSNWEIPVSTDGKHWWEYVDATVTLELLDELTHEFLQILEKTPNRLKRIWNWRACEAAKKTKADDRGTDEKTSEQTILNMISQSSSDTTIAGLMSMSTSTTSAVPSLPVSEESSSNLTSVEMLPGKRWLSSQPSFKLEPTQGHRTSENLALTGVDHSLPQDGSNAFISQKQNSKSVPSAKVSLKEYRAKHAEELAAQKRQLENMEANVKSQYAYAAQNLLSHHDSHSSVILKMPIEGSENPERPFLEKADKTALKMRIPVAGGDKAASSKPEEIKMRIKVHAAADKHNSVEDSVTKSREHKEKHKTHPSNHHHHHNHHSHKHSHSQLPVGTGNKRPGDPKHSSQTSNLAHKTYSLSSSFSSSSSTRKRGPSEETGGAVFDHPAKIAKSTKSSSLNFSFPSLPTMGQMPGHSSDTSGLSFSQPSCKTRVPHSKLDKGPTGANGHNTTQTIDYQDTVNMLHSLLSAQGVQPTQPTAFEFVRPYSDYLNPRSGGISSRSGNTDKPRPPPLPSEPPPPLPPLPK
Description for BRD4 (BET proteins): as §2

For the compound `Cc1sc2c(c1C)C(c1ccc(Cl)cc1)=N[C@@H](CC(=O)OC(C)(C)C)c1nnc(C)n1-2` [JQ1], the “sensitization to tariquidar after chronic exposure” value in series [1] (A1847 JQ1-R vs parental and dBET6-R cells) is “did not cause sensitization to tariquidar”.

`CC(=O)O[C@H]1C(=O)[C@@]2(C)[C@H]([C@H](OC(=O)c3ccccc3)[C@]3(O)C[C@H](OC(=O)[C@H](O)[C@@H](NC(=O)c4ccccc4)c4ccccc4)C(C)=C1C3(C)C)[C@]1(OC(C)=O)CO[C@@H]1C[C@@H]2O` [paclitaxel]: the “resistance to MDR1 substrate (cell viability)” value in series [1] (BET protein or CDK9 degrader-resistant A1847 cells vs parental, 5 days) was “acquired resistance”.

In the case of `CO[C@H]1C[C@@H]2CC[C@@H](C)[C@@](O)(O2)C(=O)C(=O)N2CCCC[C@H]2C(=O)O[C@H]([C@H](C)C[C@@H]2CC[C@@H](OCCO)[C@H](OC)C2)CC(=O)[C@H](C)/C=C(\C)[C@@H](O)[C@@H](OC)C(=O)[C@H](C)C[C@H](C)/C=C/C=C/C=C/1C` [RAD001, Everolimus], the “MDR1 drug efflux activity (Rhodamine 123 efflux)” value (“MDR1 drug efflux activity” below) was “reduced MDR1 drug efflux activity similar to that observed with tariquidar” on MDR1 [2] (A1847 dBET6-R or Thal-R cell lines) and “reduced MDR1 drug efflux activity similar to tariquidar-treatment” on MDR1 [3]. Also, the “growth inhibition of colonies on combination with Thal SNS 032” value in the series on DLD-1 cells (compound at 2 μM, 14 days) is on record as “enhancing growth inhibition of colonies”. Further, the “colony formation on co-treatment with dBET6” value in the series on DLD-1 cells is given as “exhibits drug synergy”. Also, the “sensitivity of degrader-resistant cells vs parental cells (cell viability)” value in series [1] (increasing concentrations, A1847 dBET6-R, Thal-R, MZ1-R and SUM159 MZ1-R) is “more sensitive”. The “degradation of CDK9 in degrader-resistant cell lines” value on CDK9 [4] was “resulted in degradation of BET proteins (FIG. 5, Panel G; FIG. 12, Panels E and F) or CDK9”. Also, the “degradation of CDK9 by Thal SNS 032 on combined treatment” value on CDK9 [5] was “improving degradation of CDK9”. Also, in series [6], the “apoptosis in degrader-resistant cell lines” value is recorded as “resulted in apoptosis similar to tariquidar treatment”. In series [7] (A1847 dBET6-R or MZ1-R vs parental, 2 μM, 4 hours), the “degradation of BET proteins in degrader-resistant cell lines” value is recorded as “resulted in degradation of BET proteins”. Also, on BRD4 (BET proteins) (combined with the compound at 2 μM), the “reduction in concentrations of dBET6 required to degrade BRD4 when combined” value turned out to be 100 fold. Further, on BRD4 (BET proteins), the “dBET6-mediated degradation of BRD4 on combined treatment” value was “improved dBET6-mediated degradation of BRD4”.

Regarding `Cc1ncsc1-c1ccc(CNC(=O)[C@@H]2C[C@@H](O)CN2C(=O)[C@@H](NC(=O)COCCOCCOCCNC(=O)C[C@@H]2N=C(c3ccc(Cl)cc3)c3c(sc(C)c3C)-n3c(C)nnc32)C(C)(C)C)cc1` [MZ1], the “colony formation with forced expression of Flag-MDR1” value in the series on A1847 or SUM159 cells is on record as “rescued colony formation growth”. In addition, in [8], the “cell viability of MDR1 overexpressing cells” value was “did not reduce cell viability to the extent of cancer cell lines expressing low or no detectable MDR1 protein”. In addition, in the series with ABCB1 (MDR1) (MOLT4 cells), the “ABCB1 expression after chronic exposure” value is on record as “do not induce ABCB1 expression”. The “MDR1 mRNA and protein levels after chronic exposure” value in the series on ABCB1 (MDR1) (OVCAR3 and HCT116 MZ1-R cells) is “elevated MDR1 mRNA and protein levels”. In addition, the “acquired resistance (cell viability dose-response)” value is listed as “acquire resistance” in [1] (setting [10]) and “resulted in degrader-resistance” in series [1] (SUM159 parental vs chronically exposed (MZ1-R) cells, 5 days). Moreover, the “sensitivity after chronic exposure (cell viability)” value in [9] (MOLT4 parental or MZ1-R cells) is recorded as “retain sensitivity”. Besides, the “acquired resistance (cell viability)” value in series [9] (OVCAR3 and HCT116, chronic exposure) is recorded as “acquired resistance”. Also, the “MDR1 protein levels upregulated relative to parental cell lines by LFQ analysis” value in the series with MDR1 (ABCB1) (A1847 cells chronically exposed to the degrader (degrader-R) vs parental) is listed as 5-5 fold. The “MDR1 protein increase compared to parental cells (proteomics)” value in the series on MDR1 (ABCB1) (SUM159 MZ1-R cells vs parental) was about 4.5 fold. The “degradation of BET proteins by escalating doses” value in series [7] (A1847 parental vs chronically exposed cells) and in series [7] (SUM159 parental vs MZ1-R cells) was “less effective at inducing degradation of BET proteins” throughout.

Take `CN(C)C/C=C/C(=O)Nc1cc2c(Nc3ccc(F)c(Cl)c3)ncnc2cc1O[C@H]1CCOC1` [afatinib]: the “MDR1 drug efflux activity” value at MDR1 [2] (A1847 Thal-R cells) was “does not reduce MDR1 drug efflux activity”.

Consider `Cc1sc2c(c1C)C(c1ccc(Cl)cc1)=N[C@@H](CC(=O)NCCCCCCCCNC(=O)COc1cccc3c1C(=O)N(C1CCC(=O)NC1=O)C3=O)c1nnc(C)n1-2` (some centres unmarked) [dBET6], for which the “cell viability of MDR1 overexpressing cells” value in series [8] is “did not reduce cell viability to the extent of cancer cell lines expressing low or no detectable MDR1 protein”. Moreover, in [1] (setting [10]), the “acquired resistance (cell viability dose-response)” value is “acquire resistance”.

As for `COc1ccc(-c2ccc3c(N4CCOCC4)nc(N4C[C@@H](C)O[C@@H](C)C4)nc3n2)cc1CO` [KU-0063794], the “MDR1 drug efflux activity” value at MDR1 [2] (A1847 Thal-R cells) is “does not reduce MDR1 drug efflux activity”. Also, the “colony formation, single agent” value with DLD-1 cells (2 μM, 14 days) was “completely repressed colony formation”. For the same compound, in the series on DLD-1 cells, the “colony formation on co-treatment with dBET6” value was “did not improve growth inhibition”. For the same compound, the “dBET6-mediated degradation of BRD4 on combined treatment” value at BRD4 (BET proteins) is given as “failed to improve degradation of BRD4”.
